Assay results from patent publication US5516897A, “Monoazo reactive dyes and solutions thereof” (Zeneca Limited, priority 1992, dated 1996).

Experiment: solubility in water
Assay type: physicochemical
Conditions: for solubility in water: temperature not stated
Source text: The concentrated solution was desalinated in a visking tubing placed in distilled water and the water replaced periodically until no further chloride ions could be detected using […] and the product precipitated by addition of ethanol to give 46 g of the title product (80% yield) having a lambda max at 417 nm and very high solubility in water.
The higher solubility of C1 compared with D1 and D2 means that more C1 can be prepared in a given vessel than for D1 or D2.

Structure (SMILES)	solubility in water	other results
CCN(c1nc(Cl)nc(Nc2ccc(N=Nc3cc4c(S(=O)(=O)O)cc(S(=O)(=O)O)cc4cc3S(=O)(=O)O)c(NC(N)=O)c2)n1)c1cc(S(=O)(=O)O)ccc1C [Example 1]	very high	–
CCN(c1nc(Nc2ccc(N=Nc3cc4c(S(=O)(=O)O)cc(S(=O)(=O)[O-])cc4cc3S(=O)(=O)O)c(NC(N)=O)c2)nc(-[n+]2ccc(C(=O)O)cc2)n1)c1cc(S(=O)(=O)O)ccc1C [Example 2]	very high	–
CC(C)N(c1cccc(S(=O)(=O)O)c1)c1nc(Cl)nc(Nc2ccc(N=Nc3cc4c(S(=O)(=O)O)cc(S(=O)(=O)O)cc4cc3S(=O)(=O)O)c(NC(N)=O)c2)n1 [Example 3]	high	–
CC(C)N(c1ccc(S(=O)(=O)O)cc1)c1nc(Cl)nc(Nc2ccc(N=Nc3cc4c(S(=O)(=O)O)cc(S(=O)(=O)O)cc4cc3S(=O)(=O)O)c(NC(N)=O)c2)n1 [Example 4]	–	solubility in water at 20° C. (20° C.): very high
CCN(c1nc(Cl)nc(Nc2cc(NC(C)=O)c(N=Nc3cc(S(=O)(=O)O)c4cccc(S(=O)(=O)O)c4c3)cc2OC)n1)c1cc(S(=O)(=O)O)ccc1C [Example 5]	–	solubility in water at 25° C. (25° C.): good
